System: depressive patient
Test: Fluctuation in the difference of Lyapunov exponent and entropy (mirror dynamic) under medication
Type: in vivo, human
Settings: Patient A or Patient B, early stages of treatment, FIG. 15
Procedure: Taking for an example the case where the action that may change a biological state is a medication, described below is a judging method for the symmetric property of Lyapunov exponent and entropy directly from the graph where the variations of these exponents with time are recorded.
This means, in other words, there exist fluctuations in the difference between Lyapunov exponent and entropy, and such a state can be called “mirror dynamic”. […] On the other hand, the fluctuation in the difference (shadow area) of Lyapunov exponent and entropy is minor in the early stages of treatment for Patient B, and therefore it can be judged that the effectiveness of medication of cloxazolam (1 mg) is low. […]
In the method according to this embodiment for judging the efficacy of an action, measurements of Lyapunov exponent and entropy are carried out at least twice, i.e. before and after the medication. […] Lyapunov exponent and entropy measured at least once after the medication are compared to the results before the medication, the variation in the symmetric property between the Lyapunov exponent and the entropy and the directional property of temporal variation in the difference between the Lyapunov exponent and the entropy, and then the effectiveness of the drug can be judged. […]

Compound: O=C1CN2CCOC2(c2ccccc2Cl)c2cc(Cl)ccc2N1 (stereo not shown) [cloxazolam, Cloxazolam]
- effectiveness of medication judged from fluctuation in the difference (shadow area) of Lyapunov exponent and entropy: low
